Data taken from US20250241848A1 (priority 2011, published 2025).

What follows are molecules tested on axillary sweat production. Settings: human, in vivo.

Q: What does the source list for `CCCOC(=O)c1ccc(O)cc1` [Propylparaben]?
A: greater effectiveness in reducing sweat production than placebo: 245%; greater reduction in sweat production than the subjects in the control group: 337%; reduction in sweat production (on average): 177 mg; subjects with at least a 30% reduction in sweat production compared to Baseline visit: 70%

Q: Polysorbate 80 was tested. Which “greater effectiveness in reducing sweat production than placebo” value did it give?
A: Its value is 280%.

Q: And the “greater reduction in sweat production than the subjects in the control group” value?
A: Its value is 300%.

Q: And the “reduction in sweat production (on average)” value?
A: The value was 159 mg.

Q: And the “subjects with at least a 30% reduction in sweat production compared to Baseline visit” value?
A: The value was 80%.

Q: `CCCCCCCCCCCCCC(=O)OC(C)C` [Isopropyl Myristate] was tested. Which “greater effectiveness in reducing sweat production than placebo” value did it give?
A: The value was 191%.

Q: What about the “greater reduction in sweat production than the subjects in the control group” value of the same molecule?
A: The value was 195%.

Q: And the “reduction in sweat production (on average)” value?
A: Its value is 103 mg.

Q: And the “subjects with at least a 30% reduction in sweat production compared to Baseline visit” value?
A: The value was 55%.
